# Results: article PMC12670405, “Second-Generation AURKA-Targeting PROTACs: Structural Optimization toward in Vivo Degradation in Neuroblastoma” (Journal of Medicinal Chemistry, 2025)
# What was measured:
# Assay in all cases: KINOMEscan scanMAX
# Type in all cases: binding
# Conditions in all cases: read-out: Percent Control
# p38-alpha = target: T1, p38-alpha (Homo sapiens, UniProt Q16539)
# T1 construct: purchased Eurofins Discovery (DiscoverX KINOMEscan scanMAX)
# Protocol: (§1) The kinome-wide binding assay was performed by Eurofins Discovery using the scanMAX screening platform. More information can be found on the Eurofins Discovery Web site.
# TLK1 = target: T2, TLK1 (Homo sapiens, UniProt Q9UKI8)
# T2 construct: purchased Eurofins Discovery (DiscoverX KINOMEscan scanMAX)
# Protocol: as §1
# JNK3 = target: T3, JNK3 (Homo sapiens, UniProt P53779)
# T3 construct: purchased Eurofins Discovery (DiscoverX KINOMEscan scanMAX)
# Protocol: as §1
# CDK4-cyclinD1 = target: T4, CDK4-cyclinD1 (Homo sapiens, UniProt P11802)
# T4 construct: purchased Eurofins Discovery (DiscoverX KINOMEscan scanMAX)
# Protocol: as §1
# PAK1 = target: T5, PAK1 (Homo sapiens, UniProt Q13153)
# T5 construct: purchased Eurofins Discovery (DiscoverX KINOMEscan scanMAX)
# Protocol: as §1
# CHEK2 = target: T6, CHEK2 (Homo sapiens, UniProt O96017)
# T6 construct: purchased Eurofins Discovery (DiscoverX KINOMEscan scanMAX)
# Protocol: as §1
# AXL = target: T7, AXL (Homo sapiens, UniProt P30530)
# T7 construct: purchased Eurofins Discovery (DiscoverX KINOMEscan scanMAX)
# Protocol: as §1
# [1] = target: T8, ABL1(F317L)-phosphorylated (Homo sapiens, UniProt P00519, F317L)
# T8 construct: purchased Eurofins Discovery (DiscoverX KINOMEscan scanMAX)
# Protocol: as §1
# NIK = target: T9, NIK (Homo sapiens, UniProt Q99558)
# T9 construct: purchased Eurofins Discovery (DiscoverX KINOMEscan scanMAX)
# Protocol: as §1
# PDGFRA = target: T10, PDGFRA (Homo sapiens, UniProt P16234)
# T10 construct: purchased Eurofins Discovery (DiscoverX KINOMEscan scanMAX)
# Protocol: as §1
# [2] = target: T11, ABL1(F317I)-phosphorylated (Homo sapiens, UniProt P00519, F317I)
# T11 construct: purchased Eurofins Discovery (DiscoverX KINOMEscan scanMAX)
# Protocol: as §1
# PIK3CA = target: T12, PIK3CA (Homo sapiens, UniProt P42336)
# T12 construct: purchased Eurofins Discovery (DiscoverX KINOMEscan scanMAX)
# Protocol: as §1
# PIP5K2C = target: T13, PIP5K2C (Homo sapiens, UniProt Q8TBX8)
# T13 construct: purchased Eurofins Discovery (DiscoverX KINOMEscan scanMAX)
# Protocol: as §1
# BIKE = target: T14, BIKE (Homo sapiens, UniProt Q9NSY1)
# T14 construct: purchased Eurofins Discovery (DiscoverX KINOMEscan scanMAX)
# Protocol: as §1
# ERBB2 = target: T15, ERBB2 (Homo sapiens, UniProt P04626)
# T15 construct: purchased Eurofins Discovery (DiscoverX KINOMEscan scanMAX)
# Protocol: as §1
# MAP3K1 = target: T16, MAP3K1 (Homo sapiens, UniProt Q13233)
# T16 construct: purchased Eurofins Discovery (DiscoverX KINOMEscan scanMAX)
# Protocol: as §1
# CDC2L5 = target: T17, CDC2L5 (Homo sapiens, UniProt Q14004)
# T17 construct: purchased Eurofins Discovery (DiscoverX KINOMEscan scanMAX)
# Protocol: as §1
# EPHB4 = target: T18, EPHB4 (Homo sapiens, UniProt P54760)
# T18 construct: purchased Eurofins Discovery (DiscoverX KINOMEscan scanMAX)
# Protocol: as §1
# PLK1 = target: T19, PLK1 (Homo sapiens, UniProt P53350)
# T19 construct: purchased Eurofins Discovery (DiscoverX KINOMEscan scanMAX)
# Protocol: as §1
# [3] = target: T20, RSK2(Kin.Dom.2-C-terminal) (Homo sapiens, UniProt P51812)
# T20 construct: RSK2(Kin.Dom.2-C-terminal); purchased Eurofins Discovery (DiscoverX KINOMEscan scanMAX)
# Protocol: as §1
# AAK1 = target: T21, AAK1 (Homo sapiens, UniProt Q2M2I8)
# T21 construct: purchased Eurofins Discovery (DiscoverX KINOMEscan scanMAX)
# Protocol: as §1
# SgK110 = target: T22, SgK110 (Homo sapiens, UniProt P0C264)
# T22 construct: purchased Eurofins Discovery (DiscoverX KINOMEscan scanMAX)
# Protocol: as §1
# ALK = target: T23, ALK (Homo sapiens, UniProt Q9UM73)
# T23 construct: purchased Eurofins Discovery (DiscoverX KINOMEscan scanMAX)
# Protocol: as §1
# FES = target: T24, FES (Homo sapiens, UniProt P07332)
# T24 construct: purchased Eurofins Discovery (DiscoverX KINOMEscan scanMAX)
# Protocol: as §1
# KIT(V559D,V654A) = target: T25, KIT(V559D,V654A) (Homo sapiens, UniProt P10721, V559D/V654A)
# T25 construct: purchased Eurofins Discovery (DiscoverX KINOMEscan scanMAX)
# Protocol: as §1
# ACVR2A = target: T26, ACVR2A (Homo sapiens, UniProt P27037)
# T26 construct: purchased Eurofins Discovery (DiscoverX KINOMEscan scanMAX)
# Protocol: as §1
# CSNK1G2 = target: T27, CSNK1G2 (Homo sapiens, UniProt P78368)
# T27 construct: purchased Eurofins Discovery (DiscoverX KINOMEscan scanMAX)
# Protocol: as §1
# WNK3 = target: T28, WNK3 (Homo sapiens, UniProt Q9BYP7)
# T28 construct: purchased Eurofins Discovery (DiscoverX KINOMEscan scanMAX)
# Protocol: as §1
# KIT(A829P) = target: T29, KIT(A829P) (Homo sapiens, UniProt P10721, A829P)
# T29 construct: purchased Eurofins Discovery (DiscoverX KINOMEscan scanMAX)
# Protocol: as §1
# PIP5K1A = target: T30, PIP5K1A (Homo sapiens, UniProt Q99755)
# T30 construct: purchased Eurofins Discovery (DiscoverX KINOMEscan scanMAX)
# Protocol: as §1
# T13 sequence (Q8TBX8 whole entry): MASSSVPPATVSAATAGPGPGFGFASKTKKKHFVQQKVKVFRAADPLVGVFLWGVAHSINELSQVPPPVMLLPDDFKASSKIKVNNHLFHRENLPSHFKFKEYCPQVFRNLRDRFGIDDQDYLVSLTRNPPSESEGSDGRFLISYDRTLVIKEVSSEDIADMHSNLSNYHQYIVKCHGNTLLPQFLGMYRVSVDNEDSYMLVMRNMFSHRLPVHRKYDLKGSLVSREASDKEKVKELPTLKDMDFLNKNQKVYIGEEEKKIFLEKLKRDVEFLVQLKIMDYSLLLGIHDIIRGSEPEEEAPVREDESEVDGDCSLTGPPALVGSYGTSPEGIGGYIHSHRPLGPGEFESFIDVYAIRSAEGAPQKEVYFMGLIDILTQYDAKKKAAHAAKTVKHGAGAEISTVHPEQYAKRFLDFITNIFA
# T4 sequence (P11802 whole entry): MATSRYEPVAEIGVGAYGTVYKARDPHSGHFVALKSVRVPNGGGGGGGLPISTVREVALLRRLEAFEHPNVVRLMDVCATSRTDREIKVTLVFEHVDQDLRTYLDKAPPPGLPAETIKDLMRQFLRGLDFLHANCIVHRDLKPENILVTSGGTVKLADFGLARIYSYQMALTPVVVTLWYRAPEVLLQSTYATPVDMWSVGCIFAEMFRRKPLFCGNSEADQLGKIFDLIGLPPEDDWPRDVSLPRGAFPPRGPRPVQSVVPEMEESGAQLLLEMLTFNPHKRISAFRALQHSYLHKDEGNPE
# T4 sequence (P24385 whole entry partner): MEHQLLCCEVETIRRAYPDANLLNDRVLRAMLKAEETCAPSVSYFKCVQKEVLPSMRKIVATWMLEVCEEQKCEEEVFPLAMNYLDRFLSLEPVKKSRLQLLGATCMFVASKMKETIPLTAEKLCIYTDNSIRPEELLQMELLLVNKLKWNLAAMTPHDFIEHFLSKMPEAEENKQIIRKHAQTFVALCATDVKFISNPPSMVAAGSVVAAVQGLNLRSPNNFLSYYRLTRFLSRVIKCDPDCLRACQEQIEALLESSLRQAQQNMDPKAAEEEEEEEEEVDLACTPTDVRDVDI
# T21 sequence (Q2M2I8 whole entry): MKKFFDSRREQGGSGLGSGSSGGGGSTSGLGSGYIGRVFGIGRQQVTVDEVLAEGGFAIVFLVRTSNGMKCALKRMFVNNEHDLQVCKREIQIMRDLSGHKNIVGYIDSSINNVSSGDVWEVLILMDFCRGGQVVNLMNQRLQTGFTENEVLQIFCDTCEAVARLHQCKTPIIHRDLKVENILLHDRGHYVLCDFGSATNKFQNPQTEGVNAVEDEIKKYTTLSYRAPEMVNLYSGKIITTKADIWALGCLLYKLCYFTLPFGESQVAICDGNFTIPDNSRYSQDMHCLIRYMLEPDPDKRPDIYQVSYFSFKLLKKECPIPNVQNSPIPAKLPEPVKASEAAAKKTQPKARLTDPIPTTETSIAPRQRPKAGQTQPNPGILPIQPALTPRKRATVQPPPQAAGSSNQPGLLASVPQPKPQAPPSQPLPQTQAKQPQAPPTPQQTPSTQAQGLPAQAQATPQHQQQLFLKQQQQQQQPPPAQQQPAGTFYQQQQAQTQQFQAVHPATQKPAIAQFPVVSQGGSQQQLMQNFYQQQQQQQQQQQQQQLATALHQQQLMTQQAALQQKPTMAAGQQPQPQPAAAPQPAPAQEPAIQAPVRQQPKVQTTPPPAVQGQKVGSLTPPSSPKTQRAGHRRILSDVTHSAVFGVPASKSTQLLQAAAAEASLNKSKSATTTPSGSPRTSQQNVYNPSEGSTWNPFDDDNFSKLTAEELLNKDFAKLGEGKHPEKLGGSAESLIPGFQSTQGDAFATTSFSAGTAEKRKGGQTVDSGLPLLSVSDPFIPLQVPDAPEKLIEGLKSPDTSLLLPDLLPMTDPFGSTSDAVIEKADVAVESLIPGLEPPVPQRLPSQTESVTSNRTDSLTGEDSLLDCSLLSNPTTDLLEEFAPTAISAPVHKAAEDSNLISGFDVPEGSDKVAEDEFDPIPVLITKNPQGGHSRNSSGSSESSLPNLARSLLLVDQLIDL
# T11 sequence (P00519 whole entry F317I): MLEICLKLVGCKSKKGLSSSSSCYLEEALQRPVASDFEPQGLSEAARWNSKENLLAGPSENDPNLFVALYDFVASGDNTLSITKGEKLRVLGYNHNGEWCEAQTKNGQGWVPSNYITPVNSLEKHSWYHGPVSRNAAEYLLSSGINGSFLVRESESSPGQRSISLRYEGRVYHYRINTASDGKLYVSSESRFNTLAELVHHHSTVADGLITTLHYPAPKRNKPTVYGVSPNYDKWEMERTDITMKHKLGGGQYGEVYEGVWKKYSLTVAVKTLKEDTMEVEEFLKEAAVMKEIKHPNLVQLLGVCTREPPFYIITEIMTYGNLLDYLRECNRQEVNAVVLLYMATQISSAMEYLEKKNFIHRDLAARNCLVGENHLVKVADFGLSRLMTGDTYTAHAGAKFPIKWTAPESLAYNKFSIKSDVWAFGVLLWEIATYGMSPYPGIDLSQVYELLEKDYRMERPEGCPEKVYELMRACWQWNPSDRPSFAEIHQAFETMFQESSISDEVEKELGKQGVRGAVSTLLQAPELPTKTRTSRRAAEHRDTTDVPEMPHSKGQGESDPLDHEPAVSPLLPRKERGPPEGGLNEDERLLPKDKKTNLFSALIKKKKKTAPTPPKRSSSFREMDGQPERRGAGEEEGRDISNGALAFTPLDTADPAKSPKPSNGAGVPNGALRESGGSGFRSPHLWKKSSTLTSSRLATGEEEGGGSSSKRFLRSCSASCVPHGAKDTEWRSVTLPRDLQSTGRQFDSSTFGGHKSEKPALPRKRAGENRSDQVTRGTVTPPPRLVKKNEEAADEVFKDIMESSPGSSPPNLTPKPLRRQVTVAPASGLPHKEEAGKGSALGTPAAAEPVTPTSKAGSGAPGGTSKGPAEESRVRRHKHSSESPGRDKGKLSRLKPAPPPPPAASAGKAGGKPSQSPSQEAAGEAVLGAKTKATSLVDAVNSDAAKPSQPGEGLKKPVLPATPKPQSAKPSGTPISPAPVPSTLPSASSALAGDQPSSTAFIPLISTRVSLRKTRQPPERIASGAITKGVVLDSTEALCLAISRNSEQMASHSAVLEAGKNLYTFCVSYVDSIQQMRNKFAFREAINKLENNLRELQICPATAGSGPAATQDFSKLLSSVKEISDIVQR
# T30 sequence (Q99755 whole entry): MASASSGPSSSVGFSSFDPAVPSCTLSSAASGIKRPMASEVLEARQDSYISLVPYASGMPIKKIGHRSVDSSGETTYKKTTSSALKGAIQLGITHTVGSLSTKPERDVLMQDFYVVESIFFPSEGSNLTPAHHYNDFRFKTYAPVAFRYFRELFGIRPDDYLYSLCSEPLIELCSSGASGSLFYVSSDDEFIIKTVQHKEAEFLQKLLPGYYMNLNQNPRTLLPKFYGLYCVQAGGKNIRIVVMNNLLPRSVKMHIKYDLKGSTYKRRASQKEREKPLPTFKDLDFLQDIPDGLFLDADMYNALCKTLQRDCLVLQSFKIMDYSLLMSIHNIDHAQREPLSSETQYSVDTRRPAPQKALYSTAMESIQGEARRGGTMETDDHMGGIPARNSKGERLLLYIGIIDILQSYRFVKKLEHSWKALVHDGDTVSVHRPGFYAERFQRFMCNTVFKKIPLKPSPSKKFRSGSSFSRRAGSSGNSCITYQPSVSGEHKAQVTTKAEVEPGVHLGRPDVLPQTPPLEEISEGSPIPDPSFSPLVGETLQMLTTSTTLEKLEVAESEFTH
# T2 sequence (Q9UKI8 whole entry): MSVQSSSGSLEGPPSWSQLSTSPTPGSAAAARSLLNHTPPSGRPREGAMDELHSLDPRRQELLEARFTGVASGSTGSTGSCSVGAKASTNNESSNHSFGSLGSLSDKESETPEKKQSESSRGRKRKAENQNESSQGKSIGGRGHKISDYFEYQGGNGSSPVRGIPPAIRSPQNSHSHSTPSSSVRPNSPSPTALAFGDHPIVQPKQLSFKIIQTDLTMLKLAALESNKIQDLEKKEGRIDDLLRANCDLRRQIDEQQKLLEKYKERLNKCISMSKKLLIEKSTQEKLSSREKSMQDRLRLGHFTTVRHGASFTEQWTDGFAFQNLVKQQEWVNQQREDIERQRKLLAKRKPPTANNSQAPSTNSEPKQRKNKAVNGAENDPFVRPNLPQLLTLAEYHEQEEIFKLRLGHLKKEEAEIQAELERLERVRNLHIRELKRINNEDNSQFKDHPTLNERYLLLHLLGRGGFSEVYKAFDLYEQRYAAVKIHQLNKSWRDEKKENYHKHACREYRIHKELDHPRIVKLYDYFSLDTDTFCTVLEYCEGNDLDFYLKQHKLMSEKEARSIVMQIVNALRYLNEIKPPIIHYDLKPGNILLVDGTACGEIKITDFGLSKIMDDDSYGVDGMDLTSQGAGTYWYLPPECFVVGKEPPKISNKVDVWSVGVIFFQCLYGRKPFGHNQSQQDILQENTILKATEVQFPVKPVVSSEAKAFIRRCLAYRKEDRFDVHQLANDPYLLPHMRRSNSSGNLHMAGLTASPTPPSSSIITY
# T27 sequence (P78368 whole entry): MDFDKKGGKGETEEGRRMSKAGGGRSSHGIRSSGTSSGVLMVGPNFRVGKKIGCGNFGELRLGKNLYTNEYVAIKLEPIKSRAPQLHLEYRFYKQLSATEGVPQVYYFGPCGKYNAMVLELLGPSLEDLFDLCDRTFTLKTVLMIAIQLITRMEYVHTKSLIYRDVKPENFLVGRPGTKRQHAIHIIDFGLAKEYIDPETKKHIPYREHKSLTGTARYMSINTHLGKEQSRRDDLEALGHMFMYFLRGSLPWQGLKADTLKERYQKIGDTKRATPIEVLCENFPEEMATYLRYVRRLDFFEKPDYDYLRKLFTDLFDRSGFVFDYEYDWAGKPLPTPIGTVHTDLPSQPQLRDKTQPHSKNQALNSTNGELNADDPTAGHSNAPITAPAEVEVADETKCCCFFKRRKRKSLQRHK
# T8 sequence (P00519 whole entry F317L): as the sequence (P00519 whole entry F317I) above, with I317L counted along it
smiles,measurement,setting,value
Cc1cc(Nc2ccc(F)c(CC3(C(=O)N4CCC(F)(CN5CCN(c6ccc(N7CCC(=O)NC7=O)cn6)CC5)CC4)CCN(Cc4cccc(Cl)c4F)CC3)n2)n[nH]1 [SK5527],remaining binding at 0.1 µM,p38-alpha; 100 nM,100%
same,remaining binding at 1 µM,p38-alpha; 1000 nM,100%
same,remaining binding at 0.1 µM,TLK1; 100 nM,88%
same,remaining binding at 1 µM,TLK1; 1000 nM,74%
same,remaining binding at 0.1 µM,JNK3; 100 nM,63%
same,remaining binding at 1 µM,JNK3; 1000 nM,69%
same,remaining binding at 0.1 µM,CDK4-cyclinD1; 100 nM,100%
same,remaining binding at 1 µM,CDK4-cyclinD1; 1000 nM,87%
same,remaining binding at 0.1 µM,PAK1; 100 nM,100%
same,remaining binding at 1 µM,PAK1; 1000 nM,88%
same,remaining binding at 0.1 µM,CHEK2; 100 nM,97%
same,remaining binding at 1 µM,CHEK2; 1000 nM,89%
same,remaining binding at 0.1 µM,AXL; 100 nM,36%
same,remaining binding at 1 µM,AXL; 1000 nM,3.3%
same,remaining binding at 0.1 µM,[1]; 100 nM,92%
same,remaining binding at 1 µM,[1]; 1000 nM,68%
same,remaining binding at 0.1 µM,NIK; 100 nM,100%
same,remaining binding at 1 µM,NIK; 1000 nM,88%
same,remaining binding at 0.1 µM,PDGFRA; 100 nM,92%
same,remaining binding at 1 µM,PDGFRA; 1000 nM,84%
same,remaining binding at 0.1 µM,[2]; 100 nM,95%
same,remaining binding at 1 µM,[2]; 1000 nM,69%
same,remaining binding at 0.1 µM,PIK3CA; 100 nM,94%
same,remaining binding at 1 µM,PIK3CA; 1000 nM,90%
same,remaining binding at 0.1 µM,PIP5K2C; 100 nM,100%
same,remaining binding at 1 µM,PIP5K2C; 1000 nM,100%
same,remaining binding at 0.1 µM,BIKE; 100 nM,80%
same,remaining binding at 1 µM,BIKE; 1000 nM,73%
same,remaining binding at 0.1 µM,ERBB2; 100 nM,100%
same,remaining binding at 1 µM,ERBB2; 1000 nM,100%
same,remaining binding at 0.1 µM,MAP3K1; 100 nM,93%
same,remaining binding at 1 µM,MAP3K1; 1000 nM,60%
same,remaining binding at 0.1 µM,CDC2L5; 100 nM,82%
same,remaining binding at 1 µM,CDC2L5; 1000 nM,73%
same,remaining binding at 0.1 µM,EPHB4; 100 nM,100%
same,remaining binding at 1 µM,EPHB4; 1000 nM,100%
same,remaining binding at 0.1 µM,PLK1; 100 nM,58%
same,remaining binding at 1 µM,PLK1; 1000 nM,82%
same,remaining binding at 0.1 µM,[3]; 100 nM,82%
same,remaining binding at 1 µM,[3]; 1000 nM,89%
same,remaining binding at 0.1 µM,AAK1; 100 nM,100%
same,remaining binding at 1 µM,AAK1; 1000 nM,92%
same,remaining binding at 0.1 µM,SgK110; 100 nM,100%
same,remaining binding at 1 µM,SgK110; 1000 nM,89%
same,remaining binding at 0.1 µM,ALK; 100 nM,73%
same,remaining binding at 1 µM,ALK; 1000 nM,62%
same,remaining binding at 0.1 µM,FES; 100 nM,100%
same,remaining binding at 1 µM,FES; 1000 nM,100%
same,remaining binding at 0.1 µM,"KIT(V559D,V654A); 100 nM",100%
same,remaining binding at 1 µM,"KIT(V559D,V654A); 1000 nM",97%
same,remaining binding at 0.1 µM,ACVR2A; 100 nM,100%
same,remaining binding at 1 µM,ACVR2A; 1000 nM,98%
same,remaining binding at 0.1 µM,CSNK1G2; 100 nM,98%
same,remaining binding at 1 µM,CSNK1G2; 1000 nM,93%
same,remaining binding at 0.1 µM,WNK3; 100 nM,82%
same,remaining binding at 1 µM,WNK3; 1000 nM,71%
same,remaining binding at 0.1 µM,KIT(A829P); 100 nM,100%
same,remaining binding at 1 µM,KIT(A829P); 1000 nM,95%
same,remaining binding at 0.1 µM,PIP5K1A; 100 nM,70%
same,remaining binding at 1 µM,PIP5K1A; 1000 nM,76%
